Test results reported in PubChem BioAssay AID2060505 (Molecular Pharmacology Branch, DTP, NCI, 2025).

Tested on: 633275-114-R-J1-PDC complex spheroids, viability
Assay: Anticancer human tumor 633275-114-R-J1-PDC patient-derived endometrial adenocarcinoma cell line growth inhibition [GQUAD]
Conditions: for IC50: curve of first compound; for viability, T/C: stronger effect = lower value
Method in brief: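 Viability of tumor cells grown as complex spheroids with endothelial and stromal cells, exposed to drug combinations. Top concentration at or near clinical Cmax (else 10 microM), diluted in half-log increments.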

[1] = second compound 0.0316 µM, first compound 0.0316 µM
[2] = second compound 0.0316 µM, first compound 0.1 µM
[3] = second compound 0.0316 µM, first compound 0.316 µM
[4] = second compound 0.0316 µM, first compound 1 µM
[5] = second compound 0.0316 µM, first compound 3.16 µM
[6] = second compound 0.0316 µM, first compound 10 µM
[7] = second compound 0.1 µM, first compound 0.0316 µM
[8] = second compound 0.1 µM, first compound 0.1 µM
[9] = second compound 0.1 µM, first compound 0.316 µM
[10] = second compound 0.1 µM, first compound 1 µM
[11] = second compound 0.1 µM, first compound 3.16 µM
[12] = second compound 0.1 µM, first compound 10 µM
[13] = second compound 0.316 µM, first compound 0.0316 µM
[14] = second compound 0.316 µM, first compound 0.1 µM
[15] = second compound 0.316 µM, first compound 0.316 µM
[16] = second compound 0.316 µM, first compound 1 µM
[17] = second compound 0.316 µM, first compound 3.16 µM
[18] = second compound 0.316 µM, first compound 10 µM
[19] = second compound 1 µM, first compound 0.0316 µM
[20] = second compound 1 µM, first compound 0.1 µM
[21] = second compound 1 µM, first compound 0.316 µM
[22] = second compound 1 µM, first compound 1 µM
[23] = second compound 1 µM, first compound 3.16 µM
[24] = second compound 1 µM, first compound 10 µM
[25] = second compound 3.16 µM, first compound 0.0316 µM
[26] = second compound 3.16 µM, first compound 0.1 µM
[27] = second compound 3.16 µM, first compound 0.316 µM
[28] = second compound 3.16 µM, first compound 1 µM
[29] = second compound 3.16 µM, first compound 3.16 µM
[30] = second compound 3.16 µM, first compound 10 µM
[31] = second compound 10 µM, first compound 0.0316 µM
[32] = second compound 10 µM, first compound 0.1 µM
[33] = second compound 10 µM, first compound 0.316 µM
[34] = second compound 10 µM, first compound 1 µM
[35] = second compound 10 µM, first compound 3.16 µM
[36] = second compound 10 µM, first compound 10 µM
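Further: spheroids exposed to the agents for seven days.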
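Wherever viability, T/C is given: percent of DMSO vehicle control viability which is 100%.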

Compound: CCCS(=O)(=O)Nc1ccc(F)c(C(=O)c2c[nH]c3ncc(-c4ccc(Cl)cc4)cc23)c1F + Cc1[nH]c2ccc(F)cc2c1-c1nc2c3cccnc3c3ncccc3c2[nH]1
- IC50 (second compound 0.0316 µM): 9.54 µM
- IC50 (second compound 0.1 µM): 9.21 µM
- IC50 (second compound 0.316 µM): 8.58 µM
- IC50 (second compound 1 µM): 8.24 µM
- IC50 (second compound 3.16 µM): 7.09 µM
- IC50 (second compound 10 µM): > 10 µM
- viability, T/C [1]: 103%
- viability, T/C [2]: 94.6%
- viability, T/C [3]: 107%
- viability, T/C [4]: 100%
- viability, T/C [5]: 86.8%
- viability, T/C [6]: 48.1%
- viability, T/C [7]: 100%
- viability, T/C [8]: 108%
- viability, T/C [9]: 102%
- viability, T/C [10]: 102%
- viability, T/C [11]: 91.6%
- viability, T/C [12]: 46.7%
- viability, T/C [13]: 91.2%
- viability, T/C [14]: 98.9%
- viability, T/C [15]: 103%
- viability, T/C [16]: 104%
- viability, T/C [17]: 94.7%
- viability, T/C [18]: 43.1%
- viability, T/C [19]: 86.4%
- viability, T/C [20]: 88.8%
- viability, T/C [21]: 92.5%
- viability, T/C [22]: 90.2%
- viability, T/C [23]: 90.1%
- viability, T/C [24]: 42%
- viability, T/C [25]: 70.7%
- viability, T/C [26]: 71.2%
- viability, T/C [27]: 66.9%
- viability, T/C [28]: 76.2%
- viability, T/C [29]: 71.2%
- viability, T/C [30]: 41%
- viability, T/C [31]: 60.4%
- viability, T/C [32]: 64.3%
- viability, T/C [33]: 65.2%
- viability, T/C [34]: 74.4%
- viability, T/C [35]: 63.3%
- viability, T/C [36]: 41.1%

Compound: O=c1[nH]cc(F)c(=O)[nH]1 + Cc1cnc(CNC(=O)c2c(=O)c3ccc(N4CCCN(C)CC4)nc3n3c2sc2ccccc23)cn1
- IC50 (second compound 0.0316 µM): > 10 µM
- IC50 (second compound 0.1 µM): 1.12 µM
- IC50 (second compound 0.316 µM): < 0.0316 µM
- IC50 (second compound 1 µM): < 0.0316 µM
- IC50 (second compound 3.16 µM): < 0.0316 µM
- IC50 (second compound 10 µM): < 0.0316 µM
- viability, T/C [1]: 67%
- viability, T/C [2]: 66.8%
- viability, T/C [3]: 62.7%
- viability, T/C [4]: 64.5%
- viability, T/C [5]: 58.8%
- viability, T/C [6]: 50.6%
- viability, T/C [7]: 60.6%
- viability, T/C [8]: 49.7%
- viability, T/C [9]: 55.8%
- viability, T/C [10]: 48.5%
- viability, T/C [11]: 51%
- viability, T/C [12]: 43.7%
- viability, T/C [13]: 45.1%
- viability, T/C [14]: 49.6%
- viability, T/C [15]: 45.6%
- viability, T/C [16]: 46.8%
- viability, T/C [17]: 46.1%
- viability, T/C [18]: 34.4%
- viability, T/C [19]: 40.9%
- viability, T/C [20]: 45.9%
- viability, T/C [21]: 39.4%
- viability, T/C [22]: 39.2%
- viability, T/C [23]: 41.2%
- viability, T/C [24]: 31.5%
- viability, T/C [25]: 40.7%
- viability, T/C [26]: 38%
- viability, T/C [27]: 37%
- viability, T/C [28]: 32.6%
- viability, T/C [29]: 36.7%
- viability, T/C [30]: 34.9%
- viability, T/C [31]: 35.8%
- viability, T/C [32]: 33.6%
- viability, T/C [33]: 30.6%
- viability, T/C [34]: 38.4%
- viability, T/C [35]: 30.9%
- viability, T/C [36]: 25%
